The source of these data is PubChem BioAssay AID256 (DTP/NCI, 2004).

Values joined by “and” are separate entries in the source; they are usually repeats but may differ in a detail not shown here. Identical values can stand only once. Inconclusive results and toxic doses are left out.

In this assay the test system is CD2F1 mice, L1210 leukemia ip, survival T/C. Nature of the assay: NCI In Vivo Anticancer Drug Screen. Data for tumor model L1210 Leukemia (intraperitoneal) in CD2F1 (CDF1) mice. The settings on record: higher = longer survival. The gist of the method: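 Activity against a transplanted murine tumor was judged by comparing the compound group with a vehicle group. The outcome in the treated animals was divided by that in the controls.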

[1] abbreviates: endpoint: mean survival time, dose: 100.0 mg/kg/injection, schedule: Q04DX003 (ip), vehicle: saline with Tween-80.
[2] abbreviates: endpoint: mean survival time, dose: 200.0 mg/kg/injection, schedule: Q04DX003 (ip), vehicle: saline with Tween-80.
[3] abbreviates: endpoint: mean survival time, dose: 400.0 mg/kg/injection, schedule: Q04DX003 (ip), vehicle: saline with Tween-80.

Consider `OCC1OC(n2cnc3c(=S)nc[nH]c32)C(O)C1O` (centres undefined), for which the T/C runs as follows: (endpoint: mean survival time, dose: 75.0 mg/kg/injection, schedule: Q01DX005 (ip), vehicle: saline) 104 % of control; (endpoint: mean survival time, dose: 75.0 mg/kg/injection, schedule: Q01DX009 (ip), vehicle: saline) 107 % of control; (endpoint: mean survival time, dose: 75.0 mg/kg/injection, schedule: Q01DX009 (oral), vehicle: saline) 97 % of control; (endpoint: mean survival time, dose: 100.0 mg/kg/injection, schedule: Q01DX005 (ip), vehicle: saline) 122 % of control; (endpoint: mean survival time, dose: 100.0 mg/kg/injection, schedule: Q01DX007 (ip), vehicle: Klucel (hydroxypropylcellulose) (HPC)) 115 % of control; (endpoint: mean survival time, dose: 100.0 mg/kg/injection, schedule: Q01DX007 (ip), vehicle: saline) 152 % of control. Moreover, the T/C reads like this: (endpoint: mean survival time, dose: 100.0 mg/kg/injection, schedule: Q01DX009 (ip), vehicle: Klucel (hydroxypropylcellulose) (HPC)) 118 % of control; (endpoint: mean survival time, dose: 100.0 mg/kg/injection, schedule: Q01DX009 (ip), vehicle: saline) 154 % of control; (endpoint: mean survival time, dose: 100.0 mg/kg/injection, schedule: Q03DX003 (ip), vehicle: Klucel (hydroxypropylcellulose) (HPC)) 95 % of control; (endpoint: mean survival time, dose: 100.0 mg/kg/injection, schedule: Q04DX003 (ip), vehicle: Klucel (hydroxypropylcellulose) (HPC)) 102 % of control; (endpoint: mean survival time, dose: 100.0 mg/kg/injection, schedule: Q04DX003 (ip), vehicle: saline) 113 % of control; (endpoint: mean survival time, dose: 112.0 mg/kg/injection, schedule: Q01DX010 (ip), vehicle: saline) 110 % of control. Also, the T/C is 107 % of control (endpoint: mean survival time, dose: 150.0 mg/kg/injection, schedule: Q01DX005 (ip), vehicle: saline); 116 % of control (endpoint: mean survival time, dose: 150.0 mg/kg/injection, schedule: Q01DX009 (ip), vehicle: saline); 98 % of control (endpoint: mean survival time, dose: 150.0 mg/kg/injection, schedule: Q01DX009 (oral), vehicle: saline); 157 % of control (endpoint: mean survival time, dose: 200.0 mg/kg/injection, schedule: Q01DX007 (ip), vehicle: saline); 179 % of control (endpoint: mean survival time, dose: 200.0 mg/kg/injection, schedule: Q01DX009 (ip), vehicle: saline); 102 % of control (endpoint: mean survival time, dose: 200.0 mg/kg/injection, schedule: Q03DX003 (ip), vehicle: Klucel (hydroxypropylcellulose) (HPC)). Besides, the T/C was 150 % of control (endpoint: mean survival time, dose: 200.0 mg/kg/injection, schedule: Q03DX003 (ip), vehicle: saline); 100 % of control (endpoint: mean survival time, dose: 200.0 mg/kg/injection, schedule: Q04DX003 (ip), vehicle: Klucel (hydroxypropylcellulose) (HPC)); 150 % of control (endpoint: mean survival time, dose: 200.0 mg/kg/injection, schedule: Q04DX003 (ip), vehicle: saline); 164 % of control (endpoint: mean survival time, dose: 240.0 mg/kg/injection, schedule: Q01DX005 (ip), vehicle: saline); 109 % of control (endpoint: mean survival time, dose: 300.0 mg/kg/injection, schedule: Q01DX002 (sc), vehicle: saline); 105 % of control (endpoint: mean survival time, dose: 300.0 mg/kg/injection, schedule: Q01DX009 (oral), vehicle: saline). For the same compound, the T/C (endpoint: mean survival time, dose: 300.0 mg/kg/injection, schedule: Q04DX003 (ip), vehicle: saline) was 108 % of control; the T/C (endpoint: mean survival time, dose: 400.0 mg/kg/injection, schedule: Q01DX007 (ip), vehicle: saline) was 104 % of control; the T/C (endpoint: mean survival time, dose: 400.0 mg/kg/injection, schedule: Q01DX009 (ip), vehicle: saline) was 116 % of control; the T/C (endpoint: mean survival time, dose: 400.0 mg/kg/injection, schedule: Q03DX003 (ip), vehicle: Klucel (hydroxypropylcellulose) (HPC)) is 111 % of control; the T/C (endpoint: mean survival time, dose: 400.0 mg/kg/injection, schedule: Q03DX003 (ip), vehicle: saline) was 154 % of control; the T/C (endpoint: mean survival time, dose: 400.0 mg/kg/injection, schedule: Q04DX003 (ip), vehicle: Klucel (hydroxypropylcellulose) (HPC)) was 111 % of control. Moreover, the T/C (endpoint: mean survival time, dose: 400.0 mg/kg/injection, schedule: Q04DX003 (ip), vehicle: saline) is 175 % of control; the T/C (endpoint: mean survival time, dose: 480.0 mg/kg/injection, schedule: Q01DX005 (ip), vehicle: saline) is 156 % of control; the T/C (endpoint: mean survival time, dose: 600.0 mg/kg/injection, schedule: Q01DX001 (ip), vehicle: saline) was 97 % of control; the T/C (endpoint: mean survival time, dose: 600.0 mg/kg/injection, schedule: Q01DX002 (ip), vehicle: saline) is 104 % of control; the T/C (endpoint: mean survival time, dose: 600.0 mg/kg/injection, schedule: Q01DX002 (sc), vehicle: saline) is 116 % of control; the T/C (endpoint: mean survival time, dose: 600.0 mg/kg/injection, schedule: Q01DX009 (oral), vehicle: saline) is 97 % of control. The T/C (endpoint: mean survival time, dose: 600.0 mg/kg/injection, schedule: Q03HX008 (ip), vehicle: saline) is 119 % of control; the T/C (endpoint: mean survival time, dose: 600.0 mg/kg/injection, schedule: Q03HX016 (ip), vehicle: saline) was 121 % of control; the T/C (endpoint: mean survival time, dose: 600.0 mg/kg/injection, schedule: Q04DX003 (ip), vehicle: saline) was 114 % of control; the T/C (endpoint: mean survival time, dose: 600.0 mg/kg/injection, schedule: Q08DX002 (ip), vehicle: saline) was 104 % of control; the T/C (endpoint: mean survival time, dose: 900.0 mg/kg/injection, schedule: Q01DX002 (ip), vehicle: saline) was 118 % of control; the T/C (endpoint: mean survival time, dose: 1200.0 mg/kg/injection, schedule: Q01DX001 (ip), vehicle: saline) was 97 % of control. The T/C by setting is: (endpoint: mean survival time, dose: 1200.0 mg/kg/injection, schedule: Q01DX002 (ip), vehicle: saline) 116 % of control; (endpoint: mean survival time, dose: 1200.0 mg/kg/injection, schedule: Q01DX009 (ip), vehicle: saline) 113 % of control; (endpoint: mean survival time, dose: 1200.0 mg/kg/injection, schedule: Q03HX016 (ip), vehicle: saline) 154 % of control; (endpoint: mean survival time, dose: 1200.0 mg/kg/injection, schedule: Q03HX024 (ip), vehicle: saline) 155 % of control and 158 % of control; (endpoint: mean survival time, dose: 1200.0 mg/kg/injection, schedule: Q08DX002 (ip), vehicle: saline) 115 % of control; (endpoint: mean survival time, dose: 2400.0 mg/kg/injection, schedule: Q01DX001 (ip), vehicle: saline) 98 % of control. Further, the T/C is 156 % of control (endpoint: mean survival time, dose: 2400.0 mg/kg/injection, schedule: Q03HX016 (ip), vehicle: saline); 114 % of control and 122 % of control (endpoint: median survival time, dose: 40.0 mg/kg/injection, schedule: Q01DX009 (ip), vehicle: saline); 155 % of control and 185 % of control (endpoint: median survival time, dose: 160.0 mg/kg/injection, schedule: Q01DX009 (ip), vehicle: saline); 185 % of control (endpoint: median survival time, dose: 320.0 mg/kg/injection, schedule: Q01DX009 (ip), vehicle: saline); 150 % of control (endpoint: median survival time, dose: 400.0 mg/kg/injection, schedule: Q01DX005 (ip), vehicle: water).
As to `COc1ccc(Cl)c2c1C(=O)C(=O)N2`, the T/C reads like this: under setting [1], 91 % of control; under setting [2], 98 % of control; under setting [3], 98 % of control.
Take `OC(Cc1ccccn1)C(Cl)(Cl)Cl` (centres undefined): the T/C by setting is: (endpoint: mean survival time, dose: 50.0 mg/kg/injection, schedule: Q04DX002 (ip), vehicle: saline) 97 % of control; (endpoint: mean survival time, dose: 100.0 mg/kg/injection, schedule: Q01DX009 (ip), vehicle: saline with Tween-80) 102 % of control; (endpoint: mean survival time, dose: 100.0 mg/kg/injection, schedule: Q04DX002 (ip), vehicle: saline) 114 % of control; under setting [1], 95 % of control; (endpoint: mean survival time, dose: 200.0 mg/kg/injection, schedule: Q01DX009 (ip), vehicle: saline with Tween-80) 112 % of control; (endpoint: mean survival time, dose: 200.0 mg/kg/injection, schedule: Q04DX002 (ip), vehicle: saline) 94 % of control. In addition, the T/C is, setting by setting: under setting [2], 111 % of control; (endpoint: mean survival time, dose: 400.0 mg/kg/injection, schedule: Q01DX009 (ip), vehicle: saline with Tween-80) 98 % of control; under setting [3], 103 % of control.
In the case of `O=C(O/N=C(/CN1CCOCC1)c1ccc(Cl)cc1)c1ccccc1`, the T/C was 97 % of control under setting [1], 94 % of control under setting [2] and 90 % of control under setting [3].
For the compound `Cc1ccc(C(=O)c2ccccc2C(=O)O)cc1O`, the T/C runs as follows: under setting [1], 98 % of control; under setting [2], 101 % of control; under setting [3], 106 % of control.
As for `CC(=N)c1ccc(C)cc1`, the T/C is, setting by setting: (endpoint: mean survival time, dose: 6.25 mg/kg/injection, schedule: Q01DX001 (ip), vehicle: saline sonified) 96 % of control; (endpoint: mean survival time, dose: 12.5 mg/kg/injection, schedule: Q01DX001 (ip), vehicle: saline sonified) 96 % of control; (endpoint: mean survival time, dose: 25.0 mg/kg/injection, schedule: Q01DX001 (ip), vehicle: saline sonified) 96 % of control.
For `COc1ccc(C(OC/C=C(\C)CCC=C(C)C)OC/C=C(\C)CCC=C(C)C)cc1`, the T/C is, setting by setting: (endpoint: mean survival time, dose: 12.5 mg/kg/injection, schedule: Q01DX009 (ip), vehicle: other) 90 % of control; (endpoint: mean survival time, dose: 25.0 mg/kg/injection, schedule: Q01DX009 (ip), vehicle: other) 90 % of control; (endpoint: mean survival time, dose: 50.0 mg/kg/injection, schedule: Q01DX009 (ip), vehicle: other) 90 % of control; (endpoint: mean survival time, dose: 100.0 mg/kg/injection, schedule: Q01DX009 (ip), vehicle: other) 95 % of control; (endpoint: mean survival time, dose: 200.0 mg/kg/injection, schedule: Q01DX009 (ip), vehicle: other) 95 % of control.
